US20220380319A1 (Bial - R&D Investments, S.A., priority 2019, published 2022)
In brackets after ≈: the same amount, converted by molar mass.

Legend:
[1] = molecular target: T1, acid ceramidase (Homo sapiens, UniProt Q13510); test: Acid ceramidase inhibition, biochemical fluorescent assay with cell lysates overexpressing acid ceramidase, substrate Rbm14-12; settings: substrate Rbm14-12 6.3 μM, pH 4.5
T1 construct: Cell lysates overexpressing acid ceramidase were used as the enzyme source; expressed in transfected cells
T1 sequence (Q13510 22-395): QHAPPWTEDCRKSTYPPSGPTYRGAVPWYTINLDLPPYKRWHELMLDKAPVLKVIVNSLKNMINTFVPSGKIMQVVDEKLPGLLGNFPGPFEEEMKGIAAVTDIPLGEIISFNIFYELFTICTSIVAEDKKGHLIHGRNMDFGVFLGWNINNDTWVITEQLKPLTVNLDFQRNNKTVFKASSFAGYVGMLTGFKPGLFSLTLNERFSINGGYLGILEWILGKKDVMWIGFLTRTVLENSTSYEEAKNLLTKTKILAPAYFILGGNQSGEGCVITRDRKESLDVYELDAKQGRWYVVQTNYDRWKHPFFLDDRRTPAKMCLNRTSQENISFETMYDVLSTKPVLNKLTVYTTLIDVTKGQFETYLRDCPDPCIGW
Procedure, shortened: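 IC50 derived by four-parameter fitting of fluorescence (ex360 nm, em446 nm) produced after 1 hr in methanol/NaIO4/glycine stop buffer, pH 10.6. Reaction: 6.3 μM Rbm14-12, 1 hr RT, following 1 hr RT compound preincubation with 10 μg overexpressing-cell lysate protein in pH 4.5 NaAC/NaCl buffer.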

[2] = Compound solubility in water

Compound `CC(C)CCNC(=O)n1cnc2c(N3CCN4CCOC[C@H]4C3)cccc21` [Example 199, (R)-4-(Hexahydropyrazino[2,1-c][1,4]oxazin-8(1H)-yl)-N-isopentyl-1H-benzo[d]imidazole-1-carboxamide] has an IC50 [1] greater than 1000 nM and a solubility [2] of 31 µg/mL (≈ 83.4 µM).

With `CC(C)CCNC(=O)n1cnc2c(N3CCN(CCC#N)CC3)cccc21` [Example 200, 4-(4-(2-Cyanoethyl)piperazin-1-yl)-N-iso-pentyl-1H-benzo[d]imidazole-1-carboxamide] the IC50 [1] was 200 to 1000 nM and the solubility [2] was 30 µg/mL (≈ 81.4 µM).

`CC(C)CCNC(=O)n1cnc2c(N3CCN(C)C(CF)C3)cccc21` (stereo not shown) [Example 201, 4-(3-(Fluoromethyl)-4-methylpiperazin-1-yl)-N-isopentyl-1H-benzo[d]imidazole-1-carboxamide] gave an IC50 [1] of 200 to 1000 nM and a solubility [2] of 28 µg/mL (≈ 77.5 µM).

Compound `CCCN1CCN(c2cccc3c2ncn3C(=O)NCCC(C)C)CC1` [Example 202, N-iso-Pentyl-4-(4-propylpiperazin-1-yl)-1H-benzo[d]imidazole-1-carboxamide] has an IC50 [1] of 200 to 1000 nM and a solubility [2] of 15 µg/mL (≈ 42 µM).

`CC(=O)N1CCN(c2cccc3c2ncn3C(=O)NCCC(C)C)CC1` [Example 203, 4-(4-Acetylpiperazin-1-yl)-N-isopentyl-1H-benzo[d]imidazole-1-carboxamide] gave an IC50 [1] of less than 200 nM and a solubility [2] of 26 µg/mL (≈ 72.7 µM).

Compound `CC(C)CCNC(=O)n1cnc2c(N3CCN(C4CN(C)C4)CC3)cccc21` [Example 204, N-iso-Pentyl-4-(4-(1-methylazetidin-3-yl)-piperazin-1-yl)-1H-benzo[d]imidazole-1-carboxamide] has an IC50 [1] of 200 to 1000 nM and a solubility [2] of 36 µg/mL (≈ 93.6 µM).

Work on `CC(C)CCNC(=O)n1cnc2c(N3CC(N4CCN(C)CC4)C3)cccc21` [Example 205, N-iso-Pentyl-4-(3-(4-methylpiperazin-1-yl)-azetidine-1-yl)-1H-benzo[d]imidazole-1-carboxamide] yielded an IC50 [1] of 200 to 1000 nM and a solubility [2] of 31 µg/mL (≈ 80.6 µM).

For `CC(C)CCNC(=O)n1cnc2c(N3CCN(C4CC4)C(=O)C3)cccc21` [Example 206, 4-(4-Cyclopropyl-3-oxopiperazin-1-yl)-N-isopentyl-1H-benzo[d]imidazole-1-carboxamide], the IC50 [1] was 200 to 1000 nM and the solubility [2] was 20 µg/mL (≈ 54.1 µM).

Compound `CC(C)CCNC(=O)n1cnc2c(N3CCN(C(C)C)CC3)cccc21` [Example 207, N-iso-Pentyl-4-(4-isopropylpiperazin-1-yl)-1H-benzo[d]imidazole-1-carboxamide] has an IC50 [1] of 200 to 1000 nM and a solubility [2] of 32 µg/mL (≈ 89.5 µM).

In the case of `CCN1CCN(c2cccc3c2ncn3C(=O)NCCC(C)C)CC1` [Example 208], the IC50 [1] is reported as 200 to 1000 nM and the solubility [2] is reported as 31 µg/mL (≈ 90.3 µM).

For `CC(C)CCNC(=O)n1cnc2c(N3CCN4C(=O)CCC4C3)cccc21` (stereo not shown) [Example 209, N-iso-Pentyl-4-(6-oxohexahydropyrrolo[1,2-a]pyrazin-2(1H)-yl)-1H-benzo[d]imidazole-1-carboxamide], the IC50 [1] was 200 to 1000 nM and the solubility [2] was 24 µg/mL (≈ 65 µM).

With `COc1nc2c(N3CCN(C)CC3)cc(C#N)cc2n1C(=O)NCCC(C)C` [Example 210, 6-Cyano-N-iso-pentyl-2-methoxy-4-(4-methylpiperazin-1-yl)-1H-benzo[d]imidazole-1-carboxamide] the IC50 [1] was less than 200 nM and the solubility [2] was 12 µg/mL (≈ 31.2 µM).

Compound `COc1nc2c(N3CCOCC3)cncc2n1C(=O)NCCC(C)C` [Example 211, N-iso-Pentyl-2-methoxy-7-morpholino-3H-imidazo[4,5-c]pyridine-3-carboxamide] has an IC50 [1] of less than 200 nM and a solubility [2] of 26 µg/mL (≈ 74.8 µM).

For `COc1nc2c(N3CCOCC3)cc(F)cc2n1C(=O)NCCC(C)C` [Example 212, 6-Fluoro-N-iso-pentyl-2-methoxy-4-morpholino-1H-benzo[d]imidazole-1-carboxamide], the IC50 [1] was 200 to 1000 nM and the solubility [2] was 8 µg/mL (≈ 22 µM).

In the case of `COc1nc2cnc(N3CCOCC3)cc2n1C(=O)NCCCc1ccccc1` [Example 213a, 2-Methoxy-6-morpholino-N-(3-phenylpropyl)-1H-imidazo[4,5-c]pyridine-1-carboxamide], the IC50 [1] is reported as less than 200 nM and the solubility [2] is reported as 9 µg/mL (≈ 22.8 µM).

Work on `COc1nc2cc(F)c(N3CCOCC3)cc2n1C(=O)NCCCCc1ccccc1` [Example 214, 5-Fluoro-2-methoxy-6-morpholino-N-(4-phenylbutyl)-1H-benzo[d]imidazole-1-carboxamide] yielded an IC50 [1] of less than 200 nM and a solubility [2] of 0.3 µg/mL (≈ 0.703 µM).

`COc1nc2cc(N3CCOCC3)c(F)cc2n1C(=O)NCCCCc1ccccc1` [Example 215, 6-Fluoro-2-methoxy-5-morpholino-N-(4-phenylbutyl)-1H-benzo[d]imidazole-1-carboxamide] gave an IC50 [1] of less than 200 nM and a solubility [2] of 0.3 µg/mL (≈ 0.703 µM).

`O=C(NCCCc1ccccc1)n1cnc2c(N3CCC4(CC3)COC4)cccc21` [Example 216, N-(3-Phenylpropyl)-4-(2-oxa-7-azaspiro[3.5]nonan-7-yl)-1H-benzo[d]imidazole-1-carboxamide] gave an IC50 [1] of less than 200 nM and a solubility [2] of 2.5 µg/mL (≈ 6.18 µM).

`O=C(NCCCCc1ccccc1)n1cnc2c(N3CCC4(CC3)COC4)cccc21` [Example 217, N-(4-Phenylbutyl)-4-(2-oxa-7-azaspiro[3.5]nonan-7-yl)-1H-benzo[d]imidazole-1-carboxamide] showed an IC50 [1] of less than 200 nM and a solubility [2] of 0.6 µg/mL (≈ 1.43 µM).

With `CC(=O)N1CCN(c2cccc3c2ncn3C(=O)NCCCc2ccccc2)CC1` [Example 218, 4-(4-Acetylpiperazin-1-yl)-N-(3-phenylpropyl)-1H-benzo[d]imidazole-1-carboxamide] the IC50 [1] was less than 200 nM and the solubility [2] was 24 µg/mL (≈ 59.2 µM).

With `C[C@@H]1CN(c2cccc3c2ncn3C(=O)NCCCc2ccccc2)C[C@H](C)O1` [Example 219, 4-((2S,6R)-2,6-Dimethylmorpholino)-N-(3-phenylpropyl)-1H-benzo[d]imidazole-1-carboxamide] the IC50 [1] was less than 200 nM and the solubility [2] was 0.5 µg/mL (≈ 1.27 µM).

In the case of `CC(C)CCNC(=O)n1cnc2c(N3[C@@H]4CC[C@H]3COC4)cccc21` [Example 220, 4-((1R,5S)-3-Oxa-8-azabicyclo[3.2.1]octan-8-yl)-N-isopentyl-1H-benzo[d]imidazole-1-carboxamide], the IC50 [1] is reported as 200 to 1000 nM and the solubility [2] is reported as 4 µg/mL (≈ 11.7 µM).

For `CC(C)CCNC(=O)n1cnc2c(N3CC4CCC(C3)O4)cccc21` [Example 221, 4-(8-Oxa-3-azabicyclo[3.2.1]octan-3-yl)-N-isopentyl-1H-benzo[d]imidazole-1-carboxamide], the IC50 [1] was 200 to 1000 nM and the solubility [2] was 5 µg/mL (≈ 14.6 µM).

With `COc1nc2ccc(N3CCOCC3)cc2n1C(=O)NCCCc1ccc(F)cc1` [Example 221a] the IC50 [1] was less than 200 nM and the solubility [2] was 4 µg/mL (≈ 9.7 µM).

Compound `COc1nc2cc(N3CCOCC3)ccc2n1C(=O)NCCCc1ccc(F)cc1` [Example 221b] has an IC50 [1] of less than 200 nM and a solubility [2] of 15 µg/mL (≈ 36.4 µM).

`CC(=O)N1CCN(c2cccc3c2ncn3C(=O)NCC2(CC(C)C)CC2)CC1` [Example 222, 4-(4-Acetylpiperazin-1-yl)-N-((1-iso-butyl-cyclopropyl)methyl)-1H-benzo[d]imidazole-1-carboxamide] gave an IC50 [1] of less than 200 nM and a solubility [2] of 7 µg/mL (≈ 17.6 µM).

With `CC(=O)N1CCN(c2cccc3c2ncn3C(=O)NCCCCC(C)C)CC1` [Example 223, 4-(4-Acetylpiperazin-1-yl)-N-(5-methylhexyl)-1H-benzo[d]imidazole-1-carboxamide] the IC50 [1] was less than 200 nM and the solubility [2] was 15 µg/mL (≈ 38.9 µM).

In the case of `COc1nc2ccc(N3CCOCC3)cc2n1C(=O)NCCCc1ccc(F)cc1F` [Example 224a, N-(3-(2,4-Difluorophenyl)propyl)-2-methoxy-6-morpholino-1H-benzo[d]imidazole-1-carboxamide], the IC50 [1] is reported as less than 200 nM and the solubility [2] is reported as 4 µg/mL (≈ 9.29 µM).

For `COc1nc2cc(N3CCOCC3)ccc2n1C(=O)NCCCc1ccc(F)cc1F` [Example 224b, N-(3-(2,4-difluorophenyl)propyl)-2-methoxy-5-morpholino-1H-benzo[d]-imidazole-1-carboxamide], the IC50 [1] was less than 200 nM and the solubility [2] was 12 µg/mL (≈ 27.9 µM).

With `CC(=O)N1CCN(c2cccc3c2ncn3C(=O)NCCCC(F)(F)F)CC1` [Example 225, 4-(4-Acetylpiperazin-1-yl)-N-(4,4,4-trifluorobutyl)-1H-benzo[d]imidazole-1-carboxamide] the IC50 [1] was less than 200 nM and the solubility [2] was 8 µg/mL (≈ 20.1 µM).

`C[C@@H]1CN(c2cccc3c2ncn3C(=O)NCCCC(F)(F)F)C[C@H](C)O1` [Example 226, 4-((2R,6S)-2,6-dimethylmorpholino)-N-(4,4,4-trifluorobutyl)-1H-benzo[d]imidazole-1-carboxamide] showed an IC50 [1] of 200 to 1000 nM and a solubility [2] of 5 µg/mL (≈ 13 µM).

With `CC(C)CC1(CNC(=O)n2cnc3c(N4CCOCC4)cccc32)CC1` [Example 227, N-((1-iso-Butylcyclopropyl)methyl)-4-morpholino-1H-benzo[d]imidazole-1-carboxamide] the IC50 [1] was less than 200 nM and the solubility [2] was 16 µg/mL (≈ 44.9 µM).

With `COc1nc2ccc(N3CCOCC3)cc2n1C(=O)NCCCc1ccco1` [Example 228a, N-(3-(Furan-2-yl)propyl)-2-methoxy-6-morpholino-1H-benzo[d]imidazole-1-carboxamide] the IC50 [1] was 200 to 1000 nM and the solubility [2] was 29 µg/mL (≈ 75.4 µM).

`COc1nc2cc(N3CCOCC3)ccc2n1C(=O)NCCCc1ccco1` [Example 228b, N-(3-(furan-2-yl)propyl)-2-methoxy-5-morpholino-1H-benzo[d]imidazole-1-carboxamide] showed an IC50 [1] of 200 to 1000 nM and a solubility [2] of 33 µg/mL (≈ 85.8 µM).

`COc1nc2ccc(N3CCOCC3)cc2n1C(=O)NCC1(CC2CC2)CC1` [Example 229a, N-((1-(Cyclopropylmethyl)cyclopropyl)-methyl)-2-methoxy-6-morpholino-1H-benzo[d]imidazole-1-carboxamide] gave an IC50 [1] of 200 to 1000 nM and a solubility [2] of 1 µg/mL (≈ 2.6 µM).
